System: bacterial growth
Experiment: culture killing assays of known Aloe components
Type: cell-based
Details: purified extracts of known Aloe components
Method: Previously isolated and identified individual aloe products as antimicrobial products were studied to confirm that these compounds were not responsible for the anti-bacterial activity identified herein. Purified extracts of several known Aloe components were provided by Dr. I. Danhoff, including: Albarin, Awbarin, Anthraquinone, Aloin A, Aloin A & B, Aloe emodin, and Yellow sap components were tested in like assays.

SMILES | inhibition of bacterial growth
O=C1c2ccccc2C(=O)c2ccccc21 [Anthraquinone] | only Aloin A and Aloe emodin showed any inhibition of bacterial growth
O=C1c2c(O)cccc2C([C@@H]2O[C@H](CO)[C@@H](O)[C@H](O)[C@H]2O)c2cc(CO)cc(O)c21 (some centres unmarked) [Aloin A] | showed any inhibition of bacterial growth
